Entries after “also recorded” stand apart in the source; their conditions may differ.
Tests used:
[1] = test system: HDAC (HeLa nuclear extract); test: HDAC Inhibitor Drug Screening Kit (fluorometric, Biovision K340-100); format: biochemical; details: for Inhibition at 500 μM (%) / Inhibition at 10 μM (%): mean of 3 independent measurements, SD <10%; for IC50: HDAC inhibitory activity
Method: The N^1-phenylpyrazole derivatives 1a (the isomer with the connection unit at C5) and 1b (the isomer with the connection unit at C3) were evaluated for their ability to inhibit the HDAC activity to have a preliminary insight about the SAR of this set of compounds. […] Therefore, the development of the other two derivatives of this class, i.e., the p-CN-phenyl derivative 2 and the p-Br-phenyl derivative 3, was focused on the single isomer C5-substituted. As for 1a, the detected inhibitory activity of 2 and 3 was in the low micromolar range (6.3 µM and 1.6 µM, respectively; Table 1).

[2] = test system: neuroblastoma SH-SY5Y tumor cell line; test: MTT antiproliferative assay; format: cell-based, Human; details: SH-SY5Y cells; for inhibition at 25 µM / IC50: Homo sapiens; for inhibition at 25 µM: after 72 h, read-out: inhibition of cell proliferation; for inhibition at 25 µM / antiproliferative effect (in words): MTT; for IC50: MTT test; for antiproliferative effect (in words): 1–50 µM, 24, 48 and 72 h
Method: Human neuroblastoma cell line SH-SY5Y was originally obtained from ATCC (Rockville, MD, USA). Cells were cultured as previously reported. Briefly, we employed RPMI 1640 medium with 10% heat-inactivated fetal bovine serum (FBS), 2 mM L-glutamine, 1 mM sodium pyruvate, 100 IU/mL penicillin and 100 μg/mL streptomycin at 37 °C in a humidified atmosphere with 5% CO2. All the reagents for cell culture were from Carlo Erba (Milan, Italy). For biological investigations, compounds 1a, 2 and 3 were solubilized in dimethyl sulfoxide (DMSO) to obtain stock solutions at a final concentration of 50 mM that were stored at −20 °C. Just prior use, aliquots were diluted in medium to the final concentrations ranging from 1 to 50 μM.
The abovementioned compounds were evaluated by the MTT assay to assess their anti-proliferative activity, as reported by Ferlazzo et al. Cells were seeded at a density of 5 × 10^3 cell/well in 96-well plates and incubated overnight at 37 °C. In treated cells, the medium was then replaced with a fresh one in which the compounds were diluted from 1 to 50 µM. Untreated cells together with ones exposed to DMSO 0.1% served as control and solvent control, respectively. After incubation for 24, 48, and 72 h, plates were firstly centrifuged, then the medium was removed, and a solution of 3-(4,5-dimethylthiazole-2-yl)-2,5-diphenyltetrazolium bromide (MTT; Sigma-Aldrich, Milan, Italy) at a concentration of 0.5 mg/mL in fresh medium (w/o phenol red) was added. Plates were incubated for further 4h. Afterward, MTT solution was removed, and the obtained formazan crystals were solubilized in 100 µL of a lysis buffer consisting of HCl/isopropanol 0.1 N and regularly shaken. Optical density was measured employing a microplate reader (iMark™, Bio-Rad Laboratories, Milan, Italy) at 595 nm. All experiments were carried out in eight replicates for three times. Results are expressed as the percentage of viable cells compared to untreated cells.

SMILES	Inhibition at 500 μM (%) [1]	IC50 [1]	inhibition at 25 µM [2]	IC50 [2]	Inhibition at 10 μM (%) [1]	antiproliferative effect (in words) [2]	antiproliferative effect (in words) ([2]; listed as 2a)
Cc1cc(C(=O)Nc2ccc(/C=C/C(=O)NO)cc2)n(-c2ccccc2)n1 [Compound 1a, (E)-N-(4-(3-(hydroxyamino)-3-oxoprop-1-enyl)phenyl)-3-methyl-1-phenyl-1H-pyrazole-5-carboxamide]	86%	7.1 ± 0.5 µM	> 75%	5.34 µM			
Cc1cc(C(=O)Nc2ccc(/C=C/C(=O)NO)cc2)nn1-c1ccccc1 [Compound 1b, (E)-N-(4-(3-(hydroxyamino)-3-oxoprop-1-enyl)phenyl)-5-methyl-1-phenyl-1H-pyrazole-3-carboxamide]	30%	> 500 µM			6%		
Cc1cc(C(=O)Nc2ccc(/C=C/C(=O)NO)cc2)n(-c2ccc(C#N)cc2)n1 [Compound 2, (E)-1-(4-cyanophenyl)-N-(4-(3-(hydroxyamino)-3-oxoprop-1-enyl)phenyl)-3-methyl-1H-pyrazole-5-carboxamide]	88%	6.3 ± 0.3 µM			51%	inactive	None of the tested concentrations; also recorded: No antiproliferative effect
Cc1cc(C(=O)Nc2ccc(/C=C/C(=O)NO)cc2)n(-c2ccc(Br)cc2)n1 [Compound 3, (E)-1-(4-bromophenyl)-N-(4-(3-(hydroxyamino)-3-oxoprop-1-enyl)phenyl)-3-methyl-1H-pyrazole-5-carboxamide]	88%	1.6 ± 0.2 µM	> 75%	5.61 µM	74%		
O=C(/C=C/c1ccc(NC(=O)c2cc(-c3ccccc3)[nH]n2)cc1)NO [Compound 4, (E)-N-(4-(3-(hydroxyamino)-3-oxoprop-1-enyl)phenyl)-5-phenyl-1H-pyrazole-3-carboxamide]	71%	155 ± 2.8 µM			13%		
O=C(/C=C/c1ccc(NC(=O)c2cc(-c3ccc(Br)cc3)[nH]n2)cc1)NO [Compound 5, (E)-5-(4-bromophenyl)-N-(4-(3-(hydroxyamino)-3-oxoprop-1-enyl)phenyl)-1H-pyrazole-3-carboxamide]	15%	> 500 µM					
O=C(/C=C/c1ccc(NC(=O)c2n[nH]c3c2Cc2ccccc2-3)cc1)NO [Compound 6, (E)-N-(4-(3-(hydroxyamino)-3-oxoprop-1-enyl)phenyl)-1,4-dihydroindeno[1,2-c]pyrazole-3-carboxamide]	87%	46.5 ± 1.5 µM			29%		
CC(/C=C/C(=O)NO)=C\[C@@H](C)C(=O)c1ccc(N(C)C)cc1 [TSA, Trichostatin A, reference compound]		3.4 ± 0.2 µM					

— article PMC6412695, “Hydroxamic Acid-Based Histone Deacetylase (HDAC) Inhibitors Bearing a Pyrazole Scaffold and a Cinnamoyl Linker” (International Journal of Molecular Sciences, 2019)
